Measurements published in patent US20160362416A1, “ANTIVIRAL COMPOUNDS” (Gilead Sciences, Inc., priority 2012, published 2016).

Columns and labels:
[1] = system: stable HCV 1b RLuc replicon cells (genotype 1b Con1 replicon); assay: HCV genotype 1b RLuc replicon reporter assay; format: cell-based; conditions: Hepatitis C virus; stable genotype 1b Con1 RLuc replicon cells, 72 hours
Method: (§1) Evaluation of cell-based anti-HCV activity: Antiviral potency (EC50) was determined using a Renilla luciferase (RLuc)-based HCV replicon reporter assay. To perform the assay for genotype 1 and 2a JFH-1, stable HCV 1a RLuc replicon cells (harboring a dicistronic genotype 1a H77 replicon that encodes a RLuc reporter), stable HCV lb RLuc replicon cells (harboring a dicistronic genotype 1b Conl replicon that encodes a RLuc reporter), or stable HCV 2a JFH-1 Rluc replicon cells (harboring a dicistronic genotype 2a JFH-1 replicon that encodes a RLuc reporter; with L31 present in NS5A) were dispensed into 384-well plates for EC50 assays. To perform the assay for genotype 2a (with M31 present in NS5A) or 2b, NS5A chimeric genotype 2a JFH-1 replicons that encodes a RLuc-Neo reporter and either genotype 2a J6 strain NS5A gene or genotype 2b MD2b-1 strain NS5A gene (both with M31 present) respectively, were either transiently transfected (t) into Huh-Lunet cells or were established as stably replicating replicon cells (s) is provided. Either cells were dispensed into 384-well plates for EC50 assays. To perform the assay for genotype 3 and 4, NS5A chimeric genotype 1b Conl replicons that encodes a Pi-RLuc reporter and either genotype 3a S52 strain NS5A gene or genotype 4a ED43 strain NS5A gene respectively, were transiently transfected (t) into Huh-Lunet cells, which were subsequently dispensed into 384-well plates. Compounds were dissolved in DMSO at a concentration of 10 mM and diluted in DMSO either manually or using an automated pipeting instrument. Serially 3-fold diluted compounds were either manually mixed with cell culture media and added to the seeded cells or directly added to the cells using an automated instrument. DMSO was used as a negative (solvent; no inhibition) control, and the protease inhibitor ITMN-191 was included at a concentration >100×EC50 as a positive control. 72 hours later, cells were lysed and Renilla luciferase activity quantified as recommended by the manufacturer (Promega-Madison, Wis.). Non-linear regression was performed to calculate EC50 values.

[2] = system: stable HCV 1a RLuc replicon cells (genotype 1a H77 replicon); assay: HCV genotype 1a RLuc replicon reporter assay; format: cell-based; conditions: Hepatitis C virus; stable genotype 1a H77 RLuc replicon cells, 72 hours
Method: as §1

[3] = system: stable HCV 2a JFH-1 Rluc replicon cells (L31 present in NS5A); assay: HCV genotype 2a JFH-1 RLuc replicon reporter assay; format: cell-based; conditions: Hepatitis C virus, 72 h, read-out: 2a JFH (nM)
Method: as §1

[4] = system: NS5A chimeric genotype 2a JFH-1 replicon with genotype 2b MD2b-1 strain NS5A gene (M31); assay: HCV genotype 2b NS5A chimeric replicon assay, stable (s); format: cell-based; conditions: Hepatitis C virus, 72 h, read-out: 2b (s) (nM)
Method: as §1

[5] = system: NS5A chimeric genotype 1b Con1 replicon with genotype 3a S52 strain NS5A gene; assay: HCV genotype 3a NS5A chimeric replicon assay; format: cell-based; conditions: Hepatitis C virus, 72 h, read-out: 3a (nM)
Method: as §1

[6] = system: NS5A chimeric genotype 1b Con1 replicon with genotype 4a ED43 strain NS5A gene; assay: HCV genotype 4a NS5A chimeric replicon assay; format: cell-based; conditions: Hepatitis C virus, 72 h, read-out: 4a (s) (nM)
Method: as §1, with “[…],” for “were transiently transfected (t) into Huh-Lunet cells,”

[7] = system: Y93H in genotype 1a NS5A replicon; assay: Resistance mutant replicon assay, genotype 1a NS5A Y93H; format: cell-based, HCV; conditions: Hepatitis C virus, read-out: 1a Y93H (nM)
Method: as §1
(§2) To determine the antiviral potency (EC50) against resistance mutants, resistance mutations, including M28T, Q30R, Q30H, Q30E, L31M, Y93C, Y93H, and Y93N in genotype 1a NS5A, Y93H and L31V/Y93H in genotype 1b NS5A, and Y93H for in genotype 3a NS5A, were introduced individually into either 1a Pi-Rluc or 1b Pi-Rluc replicons by site directed mutagenesis. Replicon RNA of each resistant mutant was transiently transfected into Huh-7-derived cured-51 cells and antiviral potency was determined on these transfected cells as described above.

[8] = system: Y93N in genotype 1a NS5A replicon; assay: Resistance mutant replicon assay, genotype 1a NS5A Y93N; format: cell-based, HCV; conditions: Hepatitis C virus, read-out: 1a Y93N (nM)
Method: as §1, §2

[9] = system: Y93H in genotype 3a NS5A replicon; assay: Resistance mutant replicon assay, genotype 3a NS5A Y93H; format: cell-based, HCV; conditions: Hepatitis C virus, read-out: 3a Y93H (nM)
Method: as §1, §2

[10] = system: NS5A chimeric genotype 2a JFH-1 replicon with genotype 2a J6 strain NS5A gene (M31); assay: HCV genotype 2a J6 NS5A chimeric replicon assay, transient (t); format: cell-based; conditions: Hepatitis C virus, 72 h, read-out: 2a J6 (t) (nM)
Method: as §1

Q: For `COC[C@H]1C[C@@H](c2nc3ccc4cc5c(cc4c3[nH]2)OCc2cc(-c3cnc([C@@H]4CC[C@H](C)N4C(=O)[C@@H](NC(=O)OC)C4C[C@@H](C)O[C@H](C)C4)[nH]3)ccc2-5)N(C(=O)[C@@H](NC(=O)OC)C2C[C@@H](C)O[C@H](C)C2)C1` (stereo partly drawn) [Example BD, methyl {(1S)-1-[(2R,6R)-2,6-dimethyltetrahydro-2H-pyran-4-yl]-2-[(2S,5S)-2-(5-{2-[(2S,4S)-1-{(2S)-2-[(2R,6R)-2,6-dimethyltetrahydro-2H-pyran-4-yl]-2-[(methoxycarbonyl)amino]acetyl}-4-methoxymethylpyrrolidin-2-yl]-1,11-dihydroisochromeno[4′,3′:6,7]naphtho[1,2-d]imidazol-9-yl}-1H-imidazol-2-yl)-5-methylpyrrolidin-1-yl]-2-oxoethyl}carbamate], which EC50 [1] is on record?
A: 96 pM

Q: What about the EC50 [2] of the same compound?
A: 60 pM

Q: What about the EC50 [3] of the same compound?
A: 0.017 nM

Q: And the EC50 [4]?
A: 0.026 nM

Q: And the EC50 [5]?
A: 0.072 nM

Q: And the EC50 [6]?
A: 0.029 nM

Q: What about the EC50 [7] of the same compound?
A: 0.088 nM

Q: What about the EC50 [8] of the same compound?
A: 0.104 nM

Q: What about the EC50 [9] of the same compound?
A: 0.814 nM

Q: `COC(=O)N[C@H](C(=O)N1[C@@H](c2ncc(-c3ccc4c(c3)COc3cc5c(ccc6nc([C@@H]7C[C@H](C)[C@H](C)N7C(=O)[C@@H](NC(=O)OC)C7C[C@@H](C)O[C@H](C)C7)[nH]c65)cc3-4)[nH]2)C[C@@H](C)[C@H]1C)C1C[C@@H](C)O[C@H](C)C1` (stereo partly drawn) [Example BB, Methyl {(1S)-1-[(2R,6R)-2,6-dimethyltetrahydro-2H-pyran-4-yl]-2-[(2R,3R,5R)-5-(5-{2-[(2S,4S,5S)-1-{(2S)-2-[(2R,6R)-2,6-dimethyltetrahydro-2H-pyran-4-yl]-2-[(methoxycarbonyl)amino]acetyl}-4,5-dimethylpyrrolidin-2-yl]-1,11-dihydroisochromeno[4′,3′:6,7]naphtho[1,2-d]imidazol-9-yl}-1H-imidazol-2-yl)-2,3-dimethylpyrrolidin-1-yl]-2-oxoethyl}carbamate] was tested. Which EC50 [1] did it give?
A: 205 pM

Q: And the EC50 [2]?
A: 3860 pM

Q: And the EC50 [3]?
A: 2.96 nM

Q: And the EC50 [4]?
A: 10.6 nM

Q: What about the EC50 [5] of the same compound?
A: 10.3 nM

Q: And the EC50 [6]?
A: 2.54 nM

Q: And the EC50 [7]?
A: 20.2 nM

Q: What about the EC50 [8] of the same compound?
A: 29.6 nM

Q: For `CC[C@H](C)[C@H](NC(=O)OC)C(=O)N1[C@@H](C)CC[C@H]1c1ncc(-c2ccc3c(c2)COc2cc4c(cc2-3)CCc2nc([C@@H]3CC[C@H](C)N3C(=O)[C@@H](NC(=O)OC)C3C[C@@H](C)O[C@H](C)C3)[nH]c2-4)[nH]1` (stereo partly drawn) [Example BE, methyl{(2S,3S)-1-[(2S,5S)-2-(5-{2-[(2S,5S)-1-{(2S)-2-[(2R,6R)-2,6-dimethyltetrahydro-2H-pyran-4-yl]-2-[(methoxycarbonyl)amino]acetyl}-5-methylpyrrolidin-2-yl]-1,4,5,11-tetrahydroisochromeno[4′,3′:6,7]naphtho[1,2-d]imidazol-9-yl}-1H-imidazol-2-yl)-5-methylpyrrolidin-1-yl]-3-methyl-1-oxopentan-2-yl}carbamate], which EC50 [1] is on record?
A: 19 pM

Q: What about the EC50 [2] of the same compound?
A: 17 pM

Q: What about the EC50 [3] of the same compound?
A: 0.011 nM

Q: What about the EC50 [4] of the same compound?
A: 0.029 nM

Q: And the EC50 [5]?
A: 0.022 nM

Q: And the EC50 [6]?
A: 0.011 nM

Q: What about the EC50 [7] of the same compound?
A: 0.755 nM

Q: What about the EC50 [8] of the same compound?
A: 1.42 nM

Q: And the EC50 [9]?
A: 2.25 nM

Q: `COC(=O)N[C@H](C(=O)N1[C@@H](C)CC[C@H]1c1ncc(-c2ccc3c(c2)COc2cc4c(ccc5nc([C@@H]6CC[C@H](C)N6C(=O)[C@H](NC(=O)OC)[C@H]6C[C@@H](C)O[C@@H](C)C6)[nH]c54)cc2-3)[nH]1)C(C)C` [Example AN, Methyl {(2S)-1-[(2S,5S)-2-(5-{2-[(2S,5S)-1-{(2R)-2-[(2R,6S)-2,6-dimethyltetrahydro-2H-pyran-4-yl]-2-[(methoxycarbonyl)amino]acetyl}-5-methylpyrrolidin-2-yl]-1,11-dihydroisochromeno[4′,3′:6,7]naphtho[1,2-d]imidazol-9-yl}-1H-imidazol-2-yl)-5-methylpyrrolidin-1-yl]-3-methyl-1-oxobutan-2-yl}carbamate] was tested. Which EC50 [1] did it give?
A: 49 pM

Q: And the EC50 [2]?
A: 4440 pM

Q: And the EC50 [3]?
A: 0.852 nM

Q: And the EC50 [10]?
A: 4.44 nM

Q: And the EC50 [4]?
A: 4.44 nM

Q: What about the EC50 [5] of the same compound?
A: 4.44 nM

Q: And the EC50 [6]?
A: 0.935 nM

Q: Which results are given for `COC(=O)N[C@H](C(=O)N1[C@@H](C)CC[C@H]1c1ncc(-c2ccc3c(c2)COc2cc4c(ccc5nc([C@@H]6CC[C@H](C)N6C(=O)[C@H](NC(=O)OC)C6C[C@@H](C)O[C@H](C)C6)[nH]c54)cc2-3)[nH]1)C(C)C` (stereo partly drawn) [Example AR, Methyl {(2S)-1-[(2S,5S)-2-(5-{2-[(2S,5S)-1-{(2R)-2-[(2R,6R)-2,6-dimethyltetrahydro-2H-pyran-4-yl]-2-[(methoxycarbonyl)amino]acetyl}-5-methylpyrrolidin-2-yl]-1,11-dihydroisochromeno[4′,3′:6,7]naphtho[1,2-d]imidazol-9-yl}-1H-imidazol-2-yl)-5-methylpyrrolidin-1-yl]-3-methyl-1-oxobutan-2-yl}carbamate]?
A: EC50 [1]: 90 pM; EC50 [2]: 8980 pM; EC50 [3]: 2.11 nM; EC50 [10]: 5.14 nM; EC50 [4]: 15.8 nM; EC50 [5]: 8.3 nM; EC50 [6]: 4.19 nM
